Measured values reported in patent US6054484A, “Transparent aqueous solution of diclofenac sodium and medicinal compositions with the use of the same” (Tsumura & Co., priority 1996, dated 2000).

Assays:
[1] = cited from earlier work
[2] = Solubility of drug substance in water, oil ingredients and fatty acid diethanolamide; type: physicochemical

For COc1ccc2c(c1)c(CC(=O)O)c(C)n2C(=O)c1ccc(Cl)cc1 [indomethacin], the “solubility in water (in words)” value [1] is listed as “insoluble in water”.
In the case of O=C(O)Cc1ccccc1Nc1c(Cl)cccc1Cl [diclofenac sodium], the “dissolution in coconut fatty acid diethanolamide” value ([2]; coconut fatty acid diethanolamide alone) is reported as “does not dissolve”, the “solubility in oil ingredients” value ([2]; in oil ingredients) is reported as “low solubility” and the “dissolution in liquid mixture of coconut fatty acid diethanolamide with water” value ([2]; liquid mixture with water) is reported as “at a high concentration and stably”. The solubility in water [1] was “about 1.5 wt. %”.
